Laboratory results from patent US20260157986A1, “METHODS OF TREATMENT OF PRIMARY BILIARY CHOLANGITIS” (Ipsen Pharma, priority 2024, published 2026).

Experiments:
patients with PBC [1] = settings: in vivo; cited from earlier work
subjects with PBC = experiment: Clinical study, not further specified (Summary); assay type: in vivo, human; settings: treatment of subjects with elafibranor
[2] = tested on: participants with PBC with inadequate response or intolerance to UDCA; experiment: ELATIVE phase III double-blind, randomised, placebo-controlled study (GFT505B-319-1, NCT04526665); assay type: in vivo, human
Method: This was assessed based on the primary endpoint, which combined reductions in ALP and total bilirubin (TB).

[3] = tested on: participants with PBC and baseline ALP >1×ULN and <1.67×ULN; experiment: Phase IIIb randomised, double-blind, placebo-controlled, two-arm study (Example 1); assay type: in vivo, human; settings: 80 mg once daily versus placebo; baseline ALP more than 1×ULN and at most 1.67×ULN
patients with PBC [4] = settings: cited from earlier work

C[C@H](CCC(=O)O)[C@H]1CC[C@H]2[C@@H]3[C@@H](O)C[C@@H]4C[C@H](O)CC[C@]4(C)[C@H]3CC[C@]12C [UDCA, Ursodeoxycholic acid]
proportion of PBC patients intolerant to UDCA (patients with PBC [1]): up to 5%

CSc1ccc(C(=O)/C=C/c2cc(C)c(OC(C)(C)C(=O)O)c(C)c2)cc1 [elafibranor]
biochemical markers in the plasma (subjects with PBC): relevant reduction of biochemical markers in the plasma | improvement in cholestasis (primary endpoint combining reductions in ALP and total bilirubin) ([2]; compared to placebo, double-blind period): greater improvement in cholestasis compared to placebo | safety and tolerability ([2]; patients with PBC): safe and well-tolerated | prevention of clinical outcome events showing disease worsening (including progression leading to liver transplant or death) [3]: better than placebo

CC[C@H]1[C@@H](O)[C@@H]2[C@H](CC[C@]3(C)[C@@H]([C@H](C)CCC(=O)O)CC[C@@H]23)[C@@]2(C)CC[C@@H](O)C[C@@H]12 [obeticholic acid]
liver failure (patients with PBC [4]; patients with advanced cirrhosis): reports of patients with advanced cirrhosis developing liver failure | pruritus (patients with PBC [4]; second line therapy): clinically significant pruritus has been reported in a significant portion of patients
